Results: the NIST ThermoML archive (doi:10.1021/je800637t)
± gives the expanded uncertainty stated by the source.

Experiments:
[1] = mn = molality of the nth substance listed, in mol/kg; settings: 100.8 kPa, Liquid, m2 = 0; for viscosity: Cone and plate viscometry; for electrical conductivity: Kyoto model CM-117 conductivity meter
[2] = refractive index (Na D-line) (dimensionless); mn = molality of the nth substance listed, in mol/kg; settings: 100.8 kPa, Liquid, Standard Abbe refractometry, m2 = 0

O [water] + O=[N+]([O-])[O-].[K+]
viscosity ([1]; 298.15 K): 0.891 ± 0.009 mPa·s | electrical conductivity ([1]; 298.15 K): 0.000125 ± 2e-06 S/m | viscosity ([1]; 313.15 K): 0.653 ± 0.007 mPa·s | electrical conductivity ([1]; 313.15 K): 0.000164 ± 2e-06 S/m | mass density ([1]; 313.15 K, Vibrating tube method): 992.15 ± 0.05 kg/m3 | refractive index ([2]; 298.15 K): 1.33277 ± 0.0004 | refractive index ([2]; 313.15 K): 1.3306 ± 0.0004
